The values that follow come from patent US20220356163A1, “SMALL MOLECULE INHIBITORS OF Id PROTEINS” (MEMORIAL SLOAN KETTERING CANCER CENTER, priority 2019, published 2022).

The test system of the assay is choroidal neovascularization. Nature of the assay: Laser-induced choroidal neovascularization (CNV) model of AMD. The class given is in vivo, mouse. The note with it: intravitreal days 1 and 7; 10 μg AGX51E2, 40 μg Aflibercept. An excerpt:
Mouse mode/s of ocular neovascularization. CNV was induced as previously described. Tobe et al., Am. J. Pathol., 153, 1641-1646 (1998). Briefly, 4-6 week-old female Id1^−/− or Id3^−/− mice and littermate control Id1^+/+ or Id3^+/+ mice (all in C57BL/6 background) had laser-induced rupture of Bruch's membrane at three locations in each eye and after 14 days mice were euthanized, eyes were removed, and choroidal flat mounts were stained with FITC-labeled Griffonia simplicifolia lectin (Vector Laboratories, Burlingame, Calif.) which selectively stains vascular cells (n=12 mice per group). Flat mounts were examined by fluorescence microscopy and the area of each CNV was measured by image analysis with Image-Pro Plus software (Media Cybernetics, Silver Spring, Md.) by an observer masked with respect to experimental groups. In other experiments, wild type 4-6 week-old, female, C57BL/6 mice had rupture of Bruch's membrane in each eye followed by intravitreal injection of 1-30 μg of AGX51 (racemic, E1 or E2) or vehicle in one eye immediately and after 7 days or mice were given twice daily i.p. injections of 500 μg of AGX51 or vehicle for 14 days (n=7-10 mice per group). The area of CNV was measured 14 days after rupture of Bruch's membrane. For Aflibercept and AGX-A treatment experiments, rupture of Bruch's membrane was carried out and then mice were treated with 40 μg of Aflibercept, 10 μg of AGX51E2, 1-5 μg of AGX51, 1-5 μg of AGX-A, DMSO or combinations. The mice were 4-6 week-old female C57BL/6. After 14 days, the mice were euthanized and CNV was measured as described above.

“Aflibercept: clinically approved treatment for AMD, a VEGF trap”: the “CNV area, head-to-head and combination treatment” value is given as “failed to reach statistical significance”.
